Tests used:
[1] = Rat Cantharidin Screen (topical anti-inflammatory activity); assay type: in vivo; settings: 72 hrs
Experimental: Compounds were tested for topical anti-inflammatory activity in a cantharidin rat ear screen, by a method described by A. Boris et al, [J. Invest. Dermatol. 68, 161 (1977)].
Cantharidin (450 μg) in a suitable solvent, such as methanol or tetrahydrofuran applied topically to one rat ear, causes severe inflammation giving approximately double the normal weight at 72 hrs. compared to the other, untreated ear. The test compounds were applied simultaneously with cantharidin in tetrahydrofuran.

[2] = Mouse Oxazolone Screen (topical anti-inflammatory activity); assay type: in vivo; settings: 24 hr after challenge; for inhibition in vivo at 100 µg/ear: 100 μg/ear; for inhibition in vivo at 200 µg/ear: 200 μg/ear
Experimental: Compounds were tested for topical anti-inflammatory activity in a mouse oxazolone screen, by a method modified from that of Dietrich and Hess [Int. Arch. Allergy, 38, 246 (1970)].
Mice were sensitised with oxazolone (2 mg in EtOH) on a shaved area of the abdomen, and then challenged with oxazolone (100 μg) with or without the test compound on the left ear 5 days later.

[3] = Quinone Quantal Writhing Test (analgesic activity); assay type: in vivo; settings: 50 mg/kg po
Experimental: L. C. Hendershot and J. Fersaith, J. Pharmac. exp. Therap. 1959, 125, 237-240.
Compounds 1 and 2 had analgesic activity giving 10 and 50 percent inhibition respectively at a dose of 50 mg/kg po.

[4] = Croton Oil Test (topical anti-inflammatory activity); assay type: in vivo, rat (Charles River Wistar); settings: 1 mg/ear, 6 hours
Experimental: Compounds were tested for anti-inflammatory activity in a topical model based on that described by Fregnan G. B. and Torsello, A. L. (1975), Current Therapeutic Research 17, No. 4, 375-381. In outline the method is as follows:
Rats, Charles River Wistar Strain, female, 10/group. Weight range 200-240 g.
Irritant solution applied consists of 1% croton oil in tetrahydrofuran. 0.05 ml is placed on each ear, compound being included in the irritant solution on one ear. 6 hours later the ears are removed by cutting along the hairline and weighed.
-ve control--no irritant solution.
+ve control--irritant solution on both ears.

[5] = Carrageenin Test (paw volume); assay type: in vivo, rat (OLAC Wistar); settings: 3 hours after carrageenin
Experimental: Groups of 8 OLAC Wistar male rats (140-170 g) received the Compounds orally 1 hour before 0.1 ml of 0.5% λ carrageenin injected into the right hind paw. Paw volumes were measured by mercury displacement 3 hours after carrageenin.

[6] = in mice; cited from earlier work

CCCCNc1cc(C)nc2cn[nH]c12 [Compound 10, 7-n-Butylamino-5-methyl-1H-pyrazolo[4,3-b]pyridine]
inhibition in vivo at 0.5 mg/ear ([1]; 0.5 mg/ear): 76%
inhibition in vivo at 100 µg/ear [2]: 54%

Cc1cc(Nc2ccccc2)c2nn(C)cc2n1 [Compound 5, 7-Anilino-2,5-dimethyl-2H-pyrazolo(4,3-b)pyridine]
inhibition in vivo at 2 mg/ear [1]: 44%
inhibition in vivo at 200 µg/ear [2]: 63%

Cc1cc(Sc2ccccc2)c2[nH]ncc2n1 [Compound 9, 5-Methyl-7-phenylthio-1H-pyrazolo[4,3-b]pyridine]
inhibition in vivo at 1 mg/ear [1]: 40%
inhibition in vivo at 100 µg/ear [2]: 61%

Cc1cc(Nc2ccc(Cl)cc2)c2[nH]ncc2n1 [Compound 14, 7-(4-Chloroanilino)-5-methyl-1H-pyrazolo[4,3-b]pyridine]
inhibition in vivo at 2 mg/ear [1]: 27%

Cc1cc(N2CCCCC2)c2[nH]ncc2n1 [Compound 2, 5-Methyl-7-piperidino-1H-pyrazolo(4,3-b)pyridine]
percent inhibition (analgesic activity) [3]: 50%
% Inhibition [4]: 34.8%
% Inhibition ([5]; 81 mg/kg orally): 41.7%

COc1ccc(Nc2cc(C)nc3cn[nH]c23)cc1 [Compound 15, 7-(4-Methoxyanilino)-5-methyl-1H-pyrazolo[4,3-b]pyridine]
inhibition in vivo at 1 mg/ear [1]: 41%

c1cc2[nH]ncc2nc1N1CCCCC1 [Compound 1, 5-Piperidino-1H-pyrazolo(4,3-b)pyridine]
percent inhibition (analgesic activity) [3]: 10%
% Inhibition [4]: 32.9%
% Inhibition ([5]; 88 mg/kg orally): 34%

Cc1cc(Nc2ccc(Cl)c(Cl)c2)c2[nH]ncc2n1 [Compound 24, 7-(3,4-Dichloroanilino)-5-methyl-1H-pyrazolo[4,3-b]pyridine]
inhibition in vivo at 1 mg/ear [1]: 29%

Cc1cc(N(C)c2ccccc2)c2[nH]ncc2n1 [Compound 17, 7-(N-Methylanilino)-5-methyl-1H-pyrazolo[4,3-b]pyridine]
inhibition in vivo at 1 mg/ear [1]: 31%
inhibition in vivo at 100 µg/ear [2]: 32%

Cc1cc(NC2CCCCC2)c2[nH]ncc2n1 [Compound 11, 7-Cyclohexylamino-5-methyl-1H-pyrazolo[4,3-b]pyridine]
inhibition in vivo at 1 mg/ear [1]: 66%

Cc1cc(Nc2ccc(C(C)(C)C)cc2)c2[nH]ncc2n1 [Compound 22, 5-Methyl-7-p-t-butylanilino-1H-pyrazolo[4,3-b]pyridine]
inhibition in vivo at 1 mg/ear [1]: 68%

CC(=O)N(C(C)=O)c1cc(C)nc2c(C)n[nH]c12 [The compound wherein R is NAc2]
CNS antidepressant activity [6]: having CNS antidepressant activity

Cc1ccc(Sc2cc(C)nc3cn[nH]c23)cc1 [Compound 3, 5-Methyl-7-(p-tolythio)-1H-pyrazolo(4,3-b)pyridine]
inhibition in vivo at 200 µg/ear [2]: 37%

Cc1cc(Nc2ccccc2)c2[nH]ncc2n1 [Compound 4, 7-Anilino-5-methyl-1H-pyrazolo(4,3-b)pyridine]
inhibition in vivo at 1 mg/ear [1]: 42%
inhibition in vivo at 200 µg/ear [2]: 81%
% Inhibition [4]: 71.7%
% Inhibition ([5]; 75 mg/kg orally): 40.2%

CCOc1ccc(Nc2cc(C)nc3cn[nH]c23)cc1 [Compound 7, 7-(4-Ethoxyanilino)-5-methyl-1H-pyrazolo[4,3-b]pyridine]
inhibition in vivo at 2 mg/ear [1]: 25%
inhibition in vivo at 100 µg/ear [2]: 56%

c1ccc(Nc2ccnc3cn[nH]c23)cc1 [Compound 19, 7-Anilino-1H-pyrazolo[4,3-b]pyridine]
inhibition in vivo at 1 mg/ear [1]: 50%

CCOc1cccc(Nc2cc(C)nc3cn[nH]c23)c1 [Compound 12, 7-(3-Ethoxyanilino)-5-methyl-1H-pyrazolo[4,3-b]pyridine]
inhibition in vivo at 1 mg/ear [1]: 41%

Cc1cc(Nc2ccccc2C)c2[nH]ncc2n1 [Compound 8, 7-(2-Methylanilino)-5-methyl-1H-pyrazolo[4,3-b]pyridine]
inhibition in vivo at 0.9 mg/ear ([1]; 0.9 mg/ear): 56%
inhibition in vivo at 100 µg/ear [2]: 31%

From patent publication US4559348A, “5- And/or 7-substituted pyrazolo-[4,3-b]-pyridines and their use as antiinflammatory agents” (Beecham Group, p.l.c., priority 1983, dated 1985)
